Source: patent publication US20240415791A1, “Therapeutic methods and compositions for treating cancer using devimistat and a fatty acid oxidation inhibitor, a tyrosine kinase inhibitor, a glutaminase inhibitor, and/or a glycolysis inhibitor” (Cornerstone Pharmaceuticals, Inc., priority 2021, published 2024)
Entries after “also recorded” stand apart in the source; their conditions may differ.

Key:
Format in all cases: cell-based, human
[1] = test system: H460, PC3 and SW620 cells; experiment: Devimistat cell killing with thioridazine in other cell lines; details: 10 μM devimistat, 21 hours treatment, 22 hours recovery
AsPC1 cells [2] = experiment: Glycogen content in AsPC1 cells; details: AsPC1, CBS2, 3 hours
Method: Glycogen was quantified using the Glycogen Assay Kit II (colorimetric) from AbCam (ab169558) according to manufacturer's instructions. Briefly, approximately 2×10^6 cells were washed with ice-cold PBS and collected via scraping in 300 μL ice-cold ddH2O. Cells were immediately sonicated on ice for 5× […] pulses with a probe sonicator (Misonix Inc, model XL2000), then heated to 80° C. for 10 min. Samples were stored O/N at −20° C., then thawed, centrifuged at 12,000×g for 10 min and the supernatants collected for glycogen hydrolysis and quantification according to manufacturer's instructions.
C. […] Cells were treated in CBS2 for 3 hours with 30 μM devimistat or mock treated (FIG. 2C, left), or treated for 3 hours with the indicated devimistat doses (FIG. 2C, right).
D. Effects of anti-metabolism agents on glycogen consumption in PANC1 and AsPC1 cells. […] Glycogen content was measured in cell lysates (see Methods, above) and the results are presented in the left and middle graphs in FIG. 3D (note the different vertical scales for PANC1 and AsPC1 plots).

AsPC1 cells [3] = experiment: Acute ATP synthesis rescue by exogenous carbon sources in AsPC1 cells treated with devimistat and GPi; details: AsPC1, 50 μM GPi, 60 μM devimistat, 50 μM oleic acid
AsPC1 cells [4] = experiment: CO2 release from 14C-oleic acid in AsPC1 cells; details: AsPC1, CBS2, 50 μM GPi, 40 μM oleic acid
AsPC1 cells [5] = experiment: Devimistat-induced cell death (ATP after recovery) in AsPC1 cells; details: AsPC1, nutrient-free CBS2, treatment followed by recovery in serum-free RPMI
Method: Cells were plated at 80% confluency in complete RPMI in black, clear bottom 96-well plates or 35-mm dishes for ATP, protein and glycogen analysis, or glass coverslips for fluorescence visualization. […] Prior to drug treatment, cells were incubated in a nutrient-free carbonate buffered salt solution (CBS2) for 3 hours. Drug treatments were then carried out in CBS2 with addition of nutrient sources and/or chemical agents as described in the Examples and Figures.
(§1) LOGIC: High throughput, plate reader assays for cell death essentially always ultimately depend on metabolic activity of cells to identify viability, directly or indirectly. Thus, strong inhibition of metabolic activity by anti-metabolism agents like those described herein can confound cell death analysis by such assays. […] The inventors thus used a recovery-based assay wherein cells are treated with anti-metabolic agents under conditions where mitochondrial metabolism is (or becomes) limiting on viability. After experimental treatment, drug and media are removed and cells are allowed to recover in serum-free RPMI. RPMI provides high levels of glucose in support of glycolytic ATP generation (independently of mitochondrial function), allowing viable cells to recover ATP levels that are ultimately measured in the plate assay to score cell viability.
Survival is assessed by conventional luminescence measurement of ATP levels after this recovery.
TECHNICAL DETAILS: Immediately after drug treatments, acute ATP levels of cells in black, clear bottom 96-well plates were measured using the CellTiter-Glo® Luminescent Cell Viability Assay (catalog #G775B) following Promega (Madison, WI) protocols. […] After this recovery period ATP levels were measured using the CellTiter-Glo® Luminescent Cell Viability Assay as described above.
Survival is assessed by conventional luminescence measurement of ATP levels after this recovery. See the Methods section above for a detailed description of this assay and its validation.

PANC1 cells = experiment: Devimistat-induced cell death (ATP after recovery) in PANC1 cells; details: PANC1, nutrient-free CBS2, treatment followed by recovery in serum-free RPMI
Method: Cells were plated at 80% confluency in complete RPMI in black, clear bottom 96-well plates or 35-mm dishes for ATP, protein and glycogen analysis, or glass coverslips for fluorescence visualization. To create low nutritional conditions, cells were seeded in complete media, after 24 hours cells were transferred to serum free RPMI for 18-24 hours. Prior to drug treatment, cells were incubated in a nutrient-free carbonate buffered salt solution (CBS2) for 3 hours. Drug treatments were then carried out in CBS2 with addition of nutrient sources and/or chemical agents as described in the Examples and Figures.
as §1, with “cell viability. Under these conditions, cells that are committed to execution of cell death by the experimental treatment score as dead and cells that have not committed to cell death recover ATP levels and score as viable.” for “cell viability.”
Specifically, after exposure to the treatments indicated, cells are allowed to recover ([…]) in RPMI without serum. Survival is assessed by conventional luminescence measurement of ATP levels after this recovery.
TECHNICAL DETAILS: Immediately after drug treatments, acute ATP levels of cells in black, clear bottom 96-well plates were measured using the CellTiter-Glo® Luminescent Cell Viability Assay (catalog #G775B) following Promega (Madison, WI) protocols. To assess cell viability, after drug treatments, drug/agent-containing medium was replaced with serum-free RPMI and cells were incubated for an additional 17-24 hours to allow recovery of viable cells, without additional cell division. After this recovery period ATP levels were measured using the CellTiter-Glo® Luminescent Cell Viability Assay as described above.
A. Exogenous glucose protects from devimistat-induced cell death. Four different cell lines were exposed for 15 hours (PANC1, AsPC1, H460) or 8 hours (PC3) to the indicated range of devimistat doses in the absence of exogenous nutrients (in carbonate buffered balanced salts solution, CBS2) after 3 hours of preincubation in CBS2 (for cell adaptation and to equilibrate soluble nutrient pools). Cells were exposed to the treatments indicated, followed by recovery (24 hours) in RPMI without serum (providing nutrient support for viable cell recovery, without serum factors for cell division). Survival is assessed by conventional luminescence measurement of ATP levels after this recovery. […] The relatively large quantitative differences in devimistat sensitivity between cell lines under exogenous nutrient deprivation are characteristic of each line (see examples below), with small experiment-to-experiment variation. […]

Structure (SMILES): CSc1ccc2c(c1)N(CCC1CCCCN1C)c1ccccc1S2 (stereo not drawn) [TZ, 2-methylmercapto-10-[2-(N-methyl-2-piperidyl)ethyl] phenothiazine]
- enhancement of devimistat cell killing [1]: enhances devimistat cell killing
- glycogen consumption (AsPC1 cells [2]): accelerates glycogen consumption
- inhibition of oleic acid (OA)-driven acute ATP synthesis / OA rescue (AsPC1 cells [3]): strongly inhibited
- oleic acid beta-oxidation (CO2 release from oleate) (AsPC1 cells [4]): block oleic acid beta-oxidation
- sensitization to devimistat-induced cell death, agent combined with devimistat (AsPC1 cells [5]): Synergy observed; also recorded: enhances devimistat effects
- sensitization to devimistat-induced cell death, agent combined with devimistat (PANC1 cells): Synergy observed
